Assays:
[1] = system: JAK2; experiment: Immunoblot of JAK2/STAT phosphorylation in Jurkat and THP-1 cells; format: cell-based, human; conditions: ZAA 3 h, cytokine 30 min
Procedure: (§1) FIG. 3. […] Total cell lysates were examined for the indicated proteins by immunoblotting. (B) Jurkat cells were transfected with p-GAS-Luc plasmids. […] Total cell lysates were harvested, and their luciferase activities were determined and normalised to the total protein. […] Total mRNA was prepared, and the mRNA levels of IRF-1 and SOCS-1 were detected by RT-PCR. GAPDH was used as the reference band. […] Total cell lysates were examined for the indicated proteins by immunoblotting. β-actin was used as internal control. […] Total cell lysates were examined for the indicated proteins by immunoblotting. All data are one of three independent experiments with similar results.
(§2) Cell lysates were analysed by western blot with primary antibodies against JAK2, pJAK2, JAK3, pJAK3, pSTAT1, pSTAT3, pSTAT5 and β-actin, followed by the appropriate HRP-linked secondary antibodies. Immunoreactive protein bands were detected using an enhanced chemiluminescence (ECL) kit (Pierce Biotechnology, Rockford, Ill.).

[2] = system: IFN-γ secretion of primary mouse splenocytes; experiment: IFN-γ secretion analysis by ELISA in splenocytes; format: cell-based; conditions: 24 h, concentration-dependent
Procedure: (§3) FIG. 1. […] After the incubation, cell lysates were assessed by immunoblot. […] In the same condition, cell proliferation was evaluated at 24, 48 and 72 h by MTS assay (lower). […] Data are expressed as the mean±SEM (n=4). **P, 0.01; ***P, 0.001 vs. stimulators-treated groups. Similar results were obtained in at least three independent experiments.
Primary mouse splenocytes were plated at 1×10^5 cells/well with 10% FBS RPMI medium in 96-well plates. Four different experimental conditions were tested. […] All experiments were conducted at 37° C. After a total 24 h of incubation, supernatant IFN-γ concentrations were measured by ELISA kit following the manufactures instructions.

[3] = biological target: T1, human JAK3 JH1-JH2 (Homo sapiens, UniProt P52333); experiment: Native PAGE antibody competition, JAK3 JH1-JH2; format: binding; conditions: antibody against aa 716-967
T1 construct: incubated with human JAK2 JH1-JH2 and JAK3 JH1-JH2 at 37° C. for 3 h; purchased Life Technologies
T1 sequence (P52333 521-1124): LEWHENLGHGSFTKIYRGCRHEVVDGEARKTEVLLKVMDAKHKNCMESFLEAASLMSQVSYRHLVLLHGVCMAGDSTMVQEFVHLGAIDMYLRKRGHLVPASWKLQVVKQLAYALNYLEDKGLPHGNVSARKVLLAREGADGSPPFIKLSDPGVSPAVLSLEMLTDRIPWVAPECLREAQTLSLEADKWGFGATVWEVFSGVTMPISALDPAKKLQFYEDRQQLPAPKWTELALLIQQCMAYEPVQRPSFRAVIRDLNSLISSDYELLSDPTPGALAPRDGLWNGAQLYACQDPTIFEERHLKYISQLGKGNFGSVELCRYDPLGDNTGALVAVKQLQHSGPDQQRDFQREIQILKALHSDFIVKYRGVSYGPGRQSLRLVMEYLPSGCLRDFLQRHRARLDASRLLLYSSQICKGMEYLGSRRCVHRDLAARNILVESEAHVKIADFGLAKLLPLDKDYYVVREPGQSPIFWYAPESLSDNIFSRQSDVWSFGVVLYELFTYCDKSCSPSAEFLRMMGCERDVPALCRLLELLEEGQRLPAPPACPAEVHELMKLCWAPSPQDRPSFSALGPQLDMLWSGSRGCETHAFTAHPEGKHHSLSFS
Procedure: Samples were loaded onto native PAGE gels for electrophoresis, and the levels of free JH1-JH2 domain were measured by immunoblotting.

[4] = system: JAK3; experiment: Immunoblot of IL-2 induced JAK3/STAT5 phosphorylation in Jurkat and THP-1 cells; format: cell-based, human; conditions: ZAA 3 h, cytokine 30 min
Procedure: as §1, §2

[5] = system: JAK2, STAT3, STAT5 and LMO2 in HepG2 cells; experiment: Immunoblot of JAK2/STAT3/STAT5/LMO2 in HepG2 cells; format: cell-based, human; conditions: 20 μM, 48 h
Procedure: as §1
(§4) As JAK2/STAT3 signaling has a role in human hepatoma HepG2 cell proliferation, JAK2 activation promotes recruitment to the receptor complex of STAT3 and STAT5 [32], and LMO2 expression.

[6] = system: BALB/c and C57/BL6 splenocytes; experiment: Mixed lymphocyte reaction assay; format: cell-based, mouse; conditions: 72 h, MTS
Procedure: (§5) FIG. 5. […] Cell proliferation was measured by MTS assay. ***P<0.001, **P<0.01, *P<0.05 when compared with the control group. […] Following incubation, proteins were extracted and assessed by immunoblot analysis. Similar results were obtained in at least three independent experiments.
The cell number of total lymphocytes was measured using the CellTiter kit.

[7] = system: pSTAT1 and IRF-1; experiment: Immunoblot of IFN-γ activated pSTAT1 and IRF-1 in Jurkat, THP-1, HMEC-1 and Chang liver cells; format: cell-based, human; conditions: 2 h and 8 h, ZAA pre-treatment
Procedure: FIG. 7. IFN-γ-activated STAT1 and induced IRF-1 protein expression in Jurkat, THP-1, Chang liver and HMEC-1 cells. […] After various time periods, cells were harvested, and total protein extracts were prepared for imunoblot analysis using the indicated antibodies. Similar results were obtained in at least three independent experiments.
(§6) Cell lysates were analysed by immunoblotting with primary antibodies against pSTAT1, pSTAT3, IRF-1 and β-actin, followed by the appropriate HRP-linked secondary antibodies. Immunoreactive protein bands were detected using an enhanced chemiluminescence (ECL) kit (Pierce Biotechnology, Rockford, Ill.).

[8] = system: IRF-1 and SOCS-1 transcription; experiment: RT-PCR of IRF-1 and SOCS-1 mRNA; format: cell-based, human; conditions: Jurkat and THP-1 cells
Procedure: as §1
Total RNA was extracted using the Trizol reagent according to the manufacturer's instructions. IRF-1, SOCS-1 and glyceraldehyde 3-phosphate GAPDH mRNA expression levels were detected by RT-PCR.

[9] = system: interferon-gamma activated sequence (GAS); experiment: Reporter assay for GAS transactivation activity; format: cell-based, human; conditions: Jurkat cells, IFN-γ 20 ng/mL, luciferase reporter
Procedure: as §1
The serum-containing medium of logarithmic growth Jurkat cells was replaced with serum-free RPMI, and the cells were transfected with p-GAS-Luc (0.5 μg/mL) plasmids using the Neon Transfection System (Invitrogen). Four hours later, the serum-free medium was replaced with RPMI containing 10% FBS. […] Luciferase reporter activity was measured according to the manufacturer's recommendation.

[10] = system: Con A-induced liver injury; experiment: Con A-induced hepatitis in mice; format: in vivo, C57BL/6 mice
Procedure: FIG. 4. […] (A) Representative microphotographs showing liver and spleen histopathologic changes with hematoxylin-and-eosin-staining (original magnification ×200). (B) The necrosis was analysed with a four-point score: 0, no; 1, 1-20% necrosis; 2, 20-40% necrosis; 3, >40% necrosis. Infiltration of leukocytes was graded on a four-point severity scale: 0, none; 1, little; 2, moderate; 3, mass. (C) Serum ALT and AST activities were measured at 8 h after Con A injection. (D) Serum levels of IFN-γ, IL-6 and IL-4 were measured at 8 h after Con A injection by ELISA. (E) Proteins from liver and spleen tissues of vehicle, ZAA and dexamethasone-treated mice were extracted and subjected to immunoblot. Values are shown as mean±S.E.M. from individual mice (n=10-13 mice/group). ***P<0.001,**P<0.01, *P<0.05 as compared with vehicle-treated mice. Similar results were obtained in at least three independent experiments.
The positive control animals with Con A-induced hepatitis were given the same amount of solvent (0.2% cyclodextrin) i.p., without any drugs. Blood samples were collected from each group for plasma transaminase activities and cytokine expression level determination. Part of the liver and spleen biopsy samples were fixed in 10% formalin, embedded in paraffin for further hematoxylin-eosin staining and the rest of the tissue samples were frozen at −80° C. for further studies.
Liver injury was quantified by determination of alanine aminotransferase (ALT) and aspartate aminotransferase (AST) activities in serum, according to the Reitman-Frankel method.

[11] = system: C57/BL6 splenocytes; experiment: Splenocyte proliferation by MTS assay; format: cell-based, mouse
Procedure: as §3
Primary mouse splenocytes were cultured in 96-well plates at a density of 4×10^5 cells/well in 10% FBS RPMI 1640 medium and activated with three different stimulators (Con A: 5 μg/mL; PHA: 2.5 μg/mL; Anti-CD3/CD28: 10/1 μg/mL) at 37° C. in 5% CO2/air. […] The cell proliferation was evaluated by MTS assay with a CellTiter kit (Promega, Madison, Wis.).

[12] = system: STAT3 in RAW264.7 cells; experiment: Immunoblot of IL-6-induced pSTAT3 in RAW264.7 cells; format: cell-based
Procedure: as §5, §6

[13] = system: P-388 murine leukaemia cells; conditions: cited from earlier work
[14] = system: Jurkat cells; experiment: Jurkat cell proliferation by MTS assay and caspase immunoblot; format: cell-based, human
[15] = system: IRF-1 in Jurkat cells; experiment: IRF-1 expression by immunoblot in Jurkat cells; format: cell-based, human; conditions: 20 μM, vs vehicle-treated cells
Procedure: as §3
The increase in cleaved pro-caspase-3 and pro-caspase-8 was also observed at the end of the 24 h ZAA-treatment. […] In other words, ZAA was safe in normal cells, but not in rapidly proliferating cells.

[16] = system: STAT1, STAT3 and IRF-1 in splenocytes; experiment: Immunoblot of IFN-γ/pSTAT1 and IL-6/pSTAT3 signaling in splenocytes; format: cell-based, mouse
Procedure: as §3, §6

[17] = system: JAK1 and TYK2; experiment: Immunoblot of IFN-α/IFN-β-induced STAT1 and JAK1 phosphorylation in Jurkat cells; format: cell-based, human
Procedure: as §1, §4

[18] = system: human JAK2 JH1-JH2; experiment: Native PAGE antibody competition, JAK2 JH1-JH2; format: binding; conditions: antibody against JAK2 aa 745-955
[19] = 20 mg/kg i.p., 8 h after Con A injection

Compound: C=C(CC[C@@H](C)[C@H]1CC[C@H]2C3=C(C(=O)C[C@]12C)[C@@]1(C)CCC(=O)[C@@H](C)[C@@H]1CC3=O)C(C)C(=O)O (some centres unmarked) [ZAA, Zhankuic acid A]
- IFN-γ-induced JAK2/STAT1, IL-6 induced JAK2/STAT1 and JAK2/STAT3, GM-CSF induced JAK2/STAT5 phosphorylation [1]: potently inhibited
- Con-A-induced IFN-γ secretion [2]: reduced
- anti-JAK3 antibody recognition of native JH1-JH2 domain [3]: reduced
- IL-2 induced JAK3/STAT5 phosphorylation [4]: potently inhibited
- phosphorylation of JAK2, STAT3 and STAT5, and LMO2 expression [5]: effectively inhibit
- cell proliferation in mixed lymphocytes reaction [6]: inhibitory effect
- IFN-γ activated pSTAT1 and IRF-1 [7]: suppressed
- IFN-γ stimulated IRF-1 and SOCS-1 transcription [8]: significantly prevented
- GAS-mediated transactivation [9]: inhibited
- extent of liver damage (histopathology) ([10]; 20 mg/kg i.p. 1 h prior to Con A, 8 h): markedly reduce
- pathologic grades: necrosis and infiltration of leukocytes ([10]; 20 mg/kg i.p. pre-treatment): significant preventative effects
- hepatitis phenotype by ALT and AST serum levels ([10]; 20 mg/kg i.p., 8 h after Con A): almost completely recovered
- reduction of serum level of IFN-γ [10, 19]: 37%
- reduction of serum level of IL-4 [10, 19]: 38%
- reduction of serum level of IL-6 [10, 19]: 66%
- caspase 3 activity and IRF-1 expression in liver and spleen tissues ([10]; 20 mg/kg pre-treatment, immunoblot): significantly reduced
- stimulator-activated T cell proliferation ([11]; Con-A, PHA or anti-CD3/CD28-induced splenocytes, concentration-dependent): significantly inhibited
- proliferation of splenocytes, ZAA alone ([11]; no stimulator, up to 20 μM): did not affect
- IL-6-induced Tyr705 phosphorylation of STAT3 [12]: suppress
- cytotoxic activity [13]: exhibited cytotoxic activity
- cleaved pro-caspase-3 and pro-caspase-8 ([14]; Jurkat, 24 h ZAA-treatment): increase
- Jurkat cell proliferation ([14]; without or with Con A, MTS): remarkably inhibited
- IRF-1 expression [15]: suppressed
- IRF-1 (downstream of STAT) ([16]; IFN-γ, concentration-dependent): inhibitory effect
- IL-6-induced Tyr705 phosphorylation of STAT3 ([16]; splenocytes): suppress
- IFN-γ-induced Tyr701 phosphorylation of STAT1 ([16]; splenocytes and Jurkat cells, IFN-γ 30 min): completely inhibit
- JAK1 phosphorylation ([17]; 20 μM): not suppressed
- IFN-α and IFN-β-induced STAT1 phosphorylation ([17]; Jurkat cells, via JAK1 and TYK2): could not inhibit
- anti-JAK2 antibody recognition of native JH1-JH2 domain [18]: reduced

Reference: patent publication US20150306112A1 (National Cheng Kung University, priority 2014, published 2015)
